Results from patent publication US20020128464A1, “Method of finding modulators of enzymes of the carotenoid biosynthetic pathway” (priority 2000, published 2002).

How the values were obtained:
[1] = system: PDS; conditions: in vitro (Trebst, 1997); cited from earlier work
[2] = system: tobacco plants; assay: Carotenoid content (phytoene accumulation) of treated tobacco plants, HPLC; type: in vivo, Nicotiana tabacum; conditions: tobacco plants treated with norflurazon; comparator for PDS antisense lines
[3] = molecular target: Erwinia uredovora PSY (Pantoea ananas, UniProt P21683); conditions: overexpressed Erwinia uredovora PSY (Neudert, 1998); read-out: pI valve (inhibition of phytoene synthase); cited from earlier work
Chain of Erwinia uredovora PSY (P21683 whole entry): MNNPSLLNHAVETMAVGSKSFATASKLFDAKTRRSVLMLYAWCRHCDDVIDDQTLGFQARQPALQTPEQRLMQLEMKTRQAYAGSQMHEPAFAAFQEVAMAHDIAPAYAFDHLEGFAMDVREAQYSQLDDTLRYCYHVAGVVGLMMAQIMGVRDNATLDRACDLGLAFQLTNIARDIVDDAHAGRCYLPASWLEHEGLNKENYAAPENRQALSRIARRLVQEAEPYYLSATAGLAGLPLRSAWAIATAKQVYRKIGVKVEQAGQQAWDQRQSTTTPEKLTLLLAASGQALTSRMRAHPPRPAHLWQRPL

Molecule | photosystem II activity following inhibition of PDS [1] | accumulation of phytoene [2] | IC50 [3]
CNc1cnn(-c2cccc(C(F)(F)F)c2)c(=O)c1Cl [norflurazon] | loss of photosystem II activity | very high accumulation of phytoene | –
C=C(CC[C@]12O[C@H](C(=O)O)[C@@](O)(C(=O)O)[C@](C(=O)O)(O1)[C@H](OC(=O)/C=C/[C@@H](C)C[C@@H](C)CC)[C@H]2O)[C@@H](OC(C)=O)[C@H](C)Cc1ccccc1 [squalestatin] | – | – | 15 µM
fluridone | loss of photosystem II activity | – | –
